Experimental data from patent US5567590A, “Methods of diagnosing steroid-resistant inflammation due to type I or type II nuclear glucocorticoid receptor binding abnormalities” (National Jewish Center for Immunology and Respiratory, priority 1994, dated 1996).
Read-outs that look alike come from different tables or passages of the source.

How the values were obtained:
[1] = FEV1 response of SS and SR asthma patients to a 1 week course of oral prednisone; assay type: in vivo, human
Description: Patients with a diagnosis of asthma, based on American Thoracic Society criteria, were selected for evaluation. […]. Patients were excluded if they had evidence for other types of lung disease, pregnancy, suspected noncompliance with medical care, or concurrent therapy with medications that alter glucocorticoid metabolism, such as anti-convulsants or erythromycin. A complete set of pulmonary function tests with lung volume, methacholine bronchial challenge, and diffusion capacity/total lung capacity ratio were obtained if the diagnosis of asthma required confirmation.
Patients were classified as SS or SR based on their prebronchodilator morning FEV1 and their response to a course of oral prednisone. […] All SR asthma patients had glucocorticoid pharmacokinetic studies to exclude those patients with an abnormality in prednisone absorption or metabolism.

[2] = 7-10 day course of high dose oral Prednisone in poorly controlled asthmatics; assay type: in vivo, human; settings: Post-Pn
Protocol: 10 poorly controlled asthmatics received a 7-10 day course of high dose oral Prednisone (20-30 mg po bid). Following prednisone treatment, PBMC's were obtained as generally described in Experiment 1 and the whole cell GR number (sites/cell) and binding affinity (Kd, nmol/l) were determined using techniques generally described in Experiment 1. In addition, spirometry and serum ECP levels were measured pre- and post-Prednisone treatment. […]

PBMC from normal donors = settings: MPN 10^-6 to 10^-9 M, 72 hours
Protocol: PBMC were then analyzed for GR-binding parameters or capacity to proliferate in the absence and presence of methylprednisone (MPN). […] After 72 hours of incubation, proliferation was measured by [^3 H]TdR incorporation (1 μCi/well, 6.7 Ci/mmol; ICN, Irvine, Calif.) during the last 6 hours of culture. Proliferation response was measured as the percent of control incorporation of [^3 ]TdR using the formula: [formula] GR-Binding Studies
PBMC from four normal donors were preincubated in the absence and presence of IL-2+IL-4, or IL-2 alone, for 48 hours and then subsequently stimulated with PMA (0.01 μM) and I (0.05 μM) in the presence and absence of MPN ranging in concentration from 10^-6 to 10^-9 M for another 72 hours. […] Each point represents the mean±SEM.

C[C@]12C=CC(=O)C=C1CC[C@@H]1[C@@H]2C(=O)C[C@@]2(C)[C@H]1CC[C@]2(O)C(=O)CO [Prednisone]
FEV1 after steroid burst ([1]; SR asthma patients (n 17), FEV1 before BD 58 % predicted): 57 | FEV1 after steroid burst ([1]; SS asthma patients (n 12), FEV1 before BD 47 % predicted): 82 | GR Number ([2]; PBMC, 10 poorly controlled asthmatics, Pre-Pn 8029 ± 1875, p 0.024): 3575 ± 1094 sites/cell | ECP ([2]; serum, Pre-Pn 16.1 ± 1.9, p 0.045): 10.8 ± 1.2 µg/L | FEV1 /FVC Ratio ([2]; Pre-Pn 0.60 ± 0.02, p 0.014): 0.70 ± 0.01 | FEV1 ([2]; Pre-Pn 63.8 ± 3.2%, p 0.008): 82.6 ± 4.4 % predicted

methylprednisone [MPN]
effect of MPN on PMA/I-induced proliferation (PBMC from normal donors; PBMC preincubated 48 hours in culture medium alone): significant dose-dependent inhibition of proliferation | effect of MPN on PMA/I-induced proliferation (PBMC from normal donors; PBMC preincubated 48 hours with IL-2+IL-4, compared with medium alone): significantly decreased inhibitory effect
